# According to patent US20110071146A1, “17BetaHSD Type 5 Inhibitor” (ASTELLAS PHARMA INC., priority 2006, published 2011):
# Like-named read-outs stand apart in the source and are kept apart here.
# Assays:
# human 17βHSD type 3 = biological target: T1, human 17βHSD type 3 (Homo sapiens, UniProt P37058); assay: Measurement of enzyme activity of human 17βHSD type 3 (testosterone production from androstenedione, DELFIA); format: biochemical; details: human 17βHSD type 3 (293 cell supernatant as enzyme source)
# T1 construct: A full-length cDNA encoding human 17βHSD type 3 used in the pharmacological test; made in house; host or cells: human fetus kidney-derived 293 cells (transfected; supernatant of disrupted cells, not purified)
# T1 sequence (P37058 1-310): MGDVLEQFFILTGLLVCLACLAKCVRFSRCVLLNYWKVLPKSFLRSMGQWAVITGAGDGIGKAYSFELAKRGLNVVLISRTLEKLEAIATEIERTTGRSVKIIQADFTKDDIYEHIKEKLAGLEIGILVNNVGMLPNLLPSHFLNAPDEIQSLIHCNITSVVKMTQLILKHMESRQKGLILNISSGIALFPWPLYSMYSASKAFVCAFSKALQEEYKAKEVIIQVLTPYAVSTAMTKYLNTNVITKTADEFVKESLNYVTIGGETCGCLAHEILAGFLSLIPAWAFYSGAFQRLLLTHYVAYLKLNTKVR
# From the text: (§1) An excellent selective inhibitory activity against human 17βHSD type 5 of the compounds of the present invention was confirmed by a test method described below. Further, the test may be performed by referring to the details of test procedure described in Maniatis, T. et al., Molecular Cloning—A Laboratory Manual Cold Spring Harbor Laboratory, NY and the like (1982). In addition, a gene encoding human 17βHSD type5 and type3 described in 1 and 2 below, and human 17βHSD type5 and type3 may be obtained by the method described in Mol. Endocrinol, 1971-1984, 11(13) (1997).
# A full-length cDNA encoding human 17βHSD type 3 used in the pharmacological test of the present invention was obtained by the PCR method using a cDNA derived from human testis as a template. The nucleotide sequence of the obtained cDNA was analyzed by the dideoxyterminator method, and the clone matched with the known human 17βHSD type 3 sequence (GenBank accession No. BC034281) was selected. Subsequently, a human fetus kidney-derived cell line, 293 cells was transformed with a plasmid containing the cDNA, and the cells were collected 24 hours later. The collected cells were then disrupted in a phosphate buffer solution containing 5% glycerol (500 μL per 100 mm-dish of a phosphate buffer solution (pH 7.4, 200 mM) containing 5% glycerol) and centrifuged (16000 rpm, 5 min, 4° C.), and the supernatant was used as an enzyme source.
# (§2) Enzyme activity was measured referring to Trevor M. Penning, et al., Biochem. J., 351, 67-77, (2000). Specifically, using a 100 mM potassium phosphate buffer (pH 6.0), (1) the enzyme purified in above 1 at a final concentration of 10 μg/mL, (2) androstenedione at a final concentration of 300 nM, (3) NADPH at a final concentration of 200 μM and (4) a test substance at a final concentration of 3 μM were mixed to react at room temperature for 2 hours, and then the amount of testosterone produced was measured using DELFIA (registered trademark) Testosterone Reagents R050-201 (PerkinElmer). The measurement was performed in accordance with the attached instructions. The amount of reduction of testosterone production in the presence of the compound was obtained as a relative value with respect to the amount of testosterone in the absence of the enzyme set at 0% and the amount of testosterone produced in the absence of the compound set at 100%. Then, IC50 values were calculated by the Logistic regression method.
# human 17βHSD type 5 = biological target: T2, human 17βHSD type 5 (Homo sapiens, UniProt P42330); assay: Measurement of enzyme activity of human 17βHSD type 5 (testosterone production from androstenedione, DELFIA); format: biochemical; details: for IC50: purified human 17βHSD type 5, androstenedione 300 nM, NADPH 200 μM, pH 6.0, room temperature 2 hours
# T2 construct: A full-length cDNA encoding human 17βHSD type 5 used in the pharmacological test; made in house; host or cells: Escherichia coli BL21
# T2 sequence (P42330 1-323): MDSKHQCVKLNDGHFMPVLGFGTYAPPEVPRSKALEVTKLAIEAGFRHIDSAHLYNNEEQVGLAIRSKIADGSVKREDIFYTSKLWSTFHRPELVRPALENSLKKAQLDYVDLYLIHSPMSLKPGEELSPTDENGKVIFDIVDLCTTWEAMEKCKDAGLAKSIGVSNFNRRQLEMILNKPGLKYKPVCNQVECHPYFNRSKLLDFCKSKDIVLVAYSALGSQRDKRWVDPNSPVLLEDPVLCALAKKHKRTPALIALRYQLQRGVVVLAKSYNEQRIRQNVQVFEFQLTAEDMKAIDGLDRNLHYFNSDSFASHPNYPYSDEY
# From the text: as §1
# A full-length cDNA encoding human 17βHSD type 5 used in the pharmacological test of the present invention was obtained by the PCR method using a cDNA derived from a human lung cancer-derived cell line, A549 cells as a template. The nucleotide sequence of the obtained cDNA was analyzed by the dideoxyterminator method, and the clone matched with the known human 17βHSD type 5 sequence (GenBank accession No. NM_003739) was selected. Escherichia coli BL21 was transformed with a plasmid containing the cDNA, cultured on a large scale, and the proteins were purified by using GSTrapFF column (Amersham) and PreScissionProtease (Amersham). The purification was performed in accordance with the instructions attached to the GSTrapFF column.
# as §2
# [1] = Measurement of concentrations of human 17βHSD type 5 inhibitor compounds in mouse tissues (plasma, prostate) after oral administration; format: in vivo; details: male ICR mice, 2 hours after administration
# Description: The concentrations in plasma and in prostate were measured after oral administration of a test substance. Male 8 to 15-week old ICR mice were used, and a solution or suspension obtained by adding 1 N NaOH solution and water in an equivalent amount to a test substance and stirring was used as an administration solution. The administration solution was administered orally once to mice, and after 2 hours, blood and a prostate were collected under ether anesthesia. The prostate was frozen and stored at −80° C. until measurement. The blood was centrifuged (3000 rpm, 15 min, 4° C.) after the addition of a minor amount of heparin, and the upper layer was collected as plasma and frozen and stored at −80° C. until measurement. 0.1 mL of the plasma was subjected to protein degeneration with 0.1 mL of acetonitrile and then centrifuged (15000 rpm, 7 min, 4° C.) to remove proteins and the supernatant thus obtained was used as an HPLC sample. The prostate was homogenized in a phosphate buffer solution (200 mM, pH 7.4, 0.5 mL), and then the whole volume was added to 3 mL of t-butyl methyl ether to perform extraction. The solvent was evaporated in a stream of nitrogen (15 min, 45° C.). The residue was resuspended in a Tris buffer solution (12.5 mM, pH 7.4, 0.3 mL) containing 2% BSA, and an equal volume of acetonitrile (0.3 mL) was added. Protein was removed as in the case of plasma and the supernatant was used as an HPLC measurement sample. Measurement was performed by an ordinary method using liquid chromatography (HPLC).
# Column: STR ODS-II (registered trademark), particle size: 5 μm, inner diameter: 4.6 mm, length: 150 mm, joint type: Waters Mobile phase: 20 mM ammonium acetate:acetonitrile=7:3 or 17 mM ammonium acetate:acetonitrile=6:4 Flow rate: 1 mL/min Column temperature: 40° C. Injection volume: 50 μL
# 5α-reductase = details: patients with BPH; cited from earlier work
# [2] = plasma, oral single dose 100 mg/kg, read-out: Conc (plasma)
# [3] = prostate, oral single dose 100 mg/kg, read-out: Conc (prostate)
# [4] = plasma, oral single dose 300 mg/kg, read-out: Conc (plasma)
# [5] = prostate, oral single dose 300 mg/kg, read-out: Conc (prostate)
Structure (SMILES),IC50 (human 17βHSD type 3) [nM],IC50 (human 17βHSD type 5) [nM],"concentration at 2 h [1, 2] [µM]","concentration at 2 h [1, 3] [µM]",other results
O=C(O)c1cn(S(=O)(=O)c2ccc(Br)cc2)c2cc3c(cc12)OCO3 [Example 203],> 10000,2000,,,
COc1cccc2c1c(C(=O)O)cn2S(=O)(=O)c1ccccc1 [Example 155],> 10000,5500,88.4,23,
O=C(O)c1cn(S(=O)(=O)c2ccc(Br)cc2)c2c(Cl)cccc12 [Example 192],> 10000,69,57.3,9.4,"concentration at 2 h [1, 4]: 126 µM; concentration at 2 h [1, 5]: 24.9 µM"
Cc1ccc(S(=O)(=O)n2cc(C(=O)O)c3ccccc32)cc1 [Example 138],> 10000,330,,,
O=C(O)c1cn(S(=O)(=O)c2ccccc2)c2c(F)cccc12 [Example 187],> 10000,2200,69.7,12.2,
"O=C(O)c1c(Cl)n(Cc2ccc(Cl)cc2)c2ccccc12 [(1), reference compound]",,> 10000,,,
CC(C)c1ccc(S(=O)(=O)n2cc(C(=O)O)c3cccc(Cl)c32)cc1 [Example 193],> 10000,130,,,
O=C(O)c1cn(S(=O)(=O)c2ccccc2)c2c(Cl)cccc12 [Example 191],> 10000,300,,,
CC(C)(C)NC(=O)[C@H]1CC[C@H]2[C@@H]3CC[C@H]4NC(=O)C=C[C@]4(C)[C@H]3CC[C@]12C [finasteride],,,,,"concentration of DHT in the prostate after administration, relative to the concentration before the administration (5α-reductase): about 20%; increase of the concentration of testosterone in the prostate (5α-reductase): 4 fold"
"COc1ccc(S(=O)(=O)n2cc(C(=O)O)c3ccccc32)cc1 [Example 133, 1-[(4-methoxyphenyl)sulfonyl]-1H-indole-3-carboxylic acid]",> 10000,3100,,,
"O=C(O)c1c(Cl)n(Cc2ccc(Cl)cc2Cl)c2ccccc12 [(2), reference compound]",,> 10000,,,17βHSD type 5 inhibitory activity (in words) (human 17βHSD type 5; summary of Table 51): scarcely exhibited 17βHSD type 5 inhibitory activity
Cc1ccc2c(c1)c(C(=O)O)cn2S(=O)(=O)c1ccccc1 [Example 163],> 10000,220,88.8,19.1,
O=C(O)c1cn(S(=O)(=O)c2ccc(Br)cc2)c2c1CCCC2 [Example 208],> 10000,2200,,,
"O=C(O)c1cn(S(=O)(=O)c2ccccc2)c2ccccc12 [Example 1, 1-(phenylsulfonyl)-1H-indole-3-carboxylic acid]",,,57.4,13.3,"concentration at 2 h ([1]; plasma, oral single dose 30 mg/kg, read-out: Conc (plasma)): 17 µM; concentration at 2 h [1, 4]: 145 µM; concentration at 2 h ([1]; prostate, oral single dose 30 mg/kg, read-out: Conc (prostate)): 5.3 µM; concentration at 2 h [1, 5]: 47.4 µM"
O=C(O)c1cn(S(=O)(=O)c2ccc(Br)cc2)c2ccccc12 [Example 144],> 10000,90,38.5,7.2,"concentration at 2 h [1, 4]: 79.1 µM; concentration at 2 h [1, 5]: 24.8 µM"
Cc1cc(Br)ccc1S(=O)(=O)n1cc(C(=O)O)c2cccc(Cl)c21 [Example 194],6200,190,,,
O=C(O)c1cn(S(=O)(=O)c2ccccc2)c2ccc(F)cc12 [Example 175],8900,120,83.8,8.6,
O=C(O)c1cn(S(=O)(=O)c2ccccc2)c2ccc(Cl)cc12 [Example 190],> 10000,690,,,"concentration at 2 h [1, 4]: 226 µM; concentration at 2 h [1, 5]: 37.4 µM"
CCc1cccc2c(C(=O)O)cn(S(=O)(=O)c3ccccc3)c12 [Example 168],> 10000,85,,,
